Test system: Melan-a cells
Experiment: Melanin production in Melan-a cells
Assay type: cell-based
Conditions: extract 25 μg and 12.5 μg, treated twice, compared to 100% untreated control, FIG. 3
Method: The chrysanthemum extract in an amount of 25 μg and 12.5 μg was solubilized in DMSO and added to Melan-a cells that were freshly seeded at a density of 5×10^4 cells on a 24 well plate. The cytosolic pH of the Melan-a melanocytes in this assay is about 5-7. Each dose of the chrysanthemum extract was added to the cells in triplicate. The final concentration of DMSO in the culture medium was maintained at 0.25%. Forty eight hours following the first set of treatment, the cells were again treated with the chrysanthemum extract and supplemented with fresh medium. Two days later, melanin was extracted and quantified by normalizing with protein content, following the method described by Komatsu et al. (J. Cosmet. Sci; 64, 455-453 (2013); Rana J. et al., Pigment Cell Res., 18:447 (2005)). Inhibitory activity of samples was reported as % reduction in melanin production compared to 100% untreated control (UT). Phenylthiourea (PTU), a well-known tyrosinase inhibitor was used as positive inhibitor control in the assay. FIG. 3 plots the results.

O=c1cc(-c2ccc(O)c(O)c2)oc2cc(O[C@@H]3OC(CO)[C@@H](O)C(O)C3O)cc(O)c12 (stereo partly shown) [luteolin-7 glucoside]
reduction in melanin production: dose-dependent inhibition

— patent publication US9801809B2, “Compositions including a botanical extract and methods of using the same in skin whitening and skin lightening applications” (Access Business Group International LLC, priority 2014, dated 2017)
